Measurements: US5002943A, “Condensed diazepinones, processes for preparing them and pharmaceutical compositions containing these compounds” (priority 1988, dated 1991)
Counter-ions that a name gives are not always drawn. Like-named read-outs stand apart in the source and are kept apart here.

Tests used:
secretion of saliva = assay: Salivation-inhibiting effect in the rat (pilocarpine-induced saliva secretion); format: in vivo, male THOM rats; conditions: iv; urethane-anaesthetised rat; i.v.; pilocarpine 2 mg/kg s.c.; read-out: -log ED50, Salivation (converted)
Description: (§1) The objective of the methods was to confirm the selectivity of the antimuscarinic effect. Those substances which had been selected on the basis of "in vitro" tests were tested for their
2. Salivation-inhibiting effect on the rat and
2. SALIVATION-INHIBITING EFFECT IN THE RAT
The secretion of saliva was initiated by subcutaneous administration of 2 mg/kg of pilocarpine. The saliva was absorbed with blotting paper and the surface area covered was measured every 5 minutes by planimetry. The dosage of the substance which reduced the volume of saliva by 50% was determined graphically. For the results see Table II.

M1 = molecular target: T1, M1 (Rattus norvegicus, UniProt P08482); assay: M1/M2 selectivity in the rat: inhibition of McN-A-343-induced rise in blood pressure (M1); format: in vivo, male THOM rats; conditions: iv, 5 min
T1 construct: from tissue; host or cells: living rat (male THOM rats, in vivo); sympathetic ganglia by own knowledge
T1 sequence (P08482 1-460): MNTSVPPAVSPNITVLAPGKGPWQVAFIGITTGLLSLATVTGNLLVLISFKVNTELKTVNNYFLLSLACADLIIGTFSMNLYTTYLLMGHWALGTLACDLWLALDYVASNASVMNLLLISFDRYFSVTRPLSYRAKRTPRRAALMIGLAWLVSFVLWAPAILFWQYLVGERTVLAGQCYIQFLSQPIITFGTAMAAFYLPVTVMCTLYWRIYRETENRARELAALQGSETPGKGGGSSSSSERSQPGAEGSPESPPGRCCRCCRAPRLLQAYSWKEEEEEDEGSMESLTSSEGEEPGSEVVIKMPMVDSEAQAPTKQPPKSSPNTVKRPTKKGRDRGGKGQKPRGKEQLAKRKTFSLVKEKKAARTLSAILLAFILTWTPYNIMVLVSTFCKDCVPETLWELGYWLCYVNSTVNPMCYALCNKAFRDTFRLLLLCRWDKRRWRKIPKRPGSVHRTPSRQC
Source text: (§2) B. Investigation of functional selectivity of the antimuscarinic effect
(§3) Substances with antimuscarinic properties inhibit the effects of agonists supplied exogenically or of acetylcholine, which is released from cholinergic nerve endings. The following is a description of some methods that are suitable for the detection of cardioselective antimuscarinic agents.
as §1
(§4) 1. M1 /M2 selectivity in the rat,
(§5) 3. Inhibition of the acetylcholine effect on the bladder, bronchi and heart rate in the guinea pig. 1. M1 /M2 SELECTIVITY IN THE RAT
The dosage of the substances which reduced either the vagal bradycardia (M2) or the rise in blood pressure (M1) by 50% was determined graphically. For the results see Table II.

M2 = molecular target: T2, M2 (Rattus norvegicus, UniProt P10980); assay: M1/M2 selectivity in the rat: inhibition of vagal bradycardia (M2); format: in vivo, male THOM rats; conditions: iv, 5 min
T2 construct: The bradycardia caused by vagus stimulation; from tissue; host or cells: heart of the living rat (male THOM rats, in vivo)
T2 sequence (P10980 1-466): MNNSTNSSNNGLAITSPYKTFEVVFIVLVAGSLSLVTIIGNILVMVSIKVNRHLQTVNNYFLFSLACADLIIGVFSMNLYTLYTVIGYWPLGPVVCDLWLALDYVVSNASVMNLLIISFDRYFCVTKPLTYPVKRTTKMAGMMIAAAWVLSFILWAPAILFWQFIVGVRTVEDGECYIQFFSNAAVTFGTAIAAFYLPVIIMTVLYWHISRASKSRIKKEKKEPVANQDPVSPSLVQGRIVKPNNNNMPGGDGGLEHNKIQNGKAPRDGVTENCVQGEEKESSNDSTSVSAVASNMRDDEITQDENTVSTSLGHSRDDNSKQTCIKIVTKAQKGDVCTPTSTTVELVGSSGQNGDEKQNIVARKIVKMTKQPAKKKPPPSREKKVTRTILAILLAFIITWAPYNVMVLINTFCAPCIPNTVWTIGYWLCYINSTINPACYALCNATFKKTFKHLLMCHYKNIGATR
Source text: as §2, §3, §1, §4, §5
The method used was described by Hammer and Giachetti (Life Sciences 31, 2991-2998 (1982)). 5 minutes after the intravenous injection of increasing doses of the substance, either the right vagus was electrically stimulated (frequency: 25 Hz; pulse width: 2ms; duration of stimulus: 30s; voltage: supramaximal) or 0.3 mg/kg of McN-A-343 were intravenously injected into male THOM rats. The bradycardia caused by vagus stimulation and the rise in blood pressure caused by McN-A-343 were determined. The dosage of the substances which reduced either the vagal bradycardia (M2) or the rise in blood pressure (M1) by 50% was determined graphically. For the results see Table II.

[1] = system: acetylcholine activity on the bronchi; assay: Inhibition of the effect of acetylcholine on the bronchi in guinea pigs; format: in vivo; conditions: Cavia porcellus, 5 min; anaesthetised guinea pig; 5 minutes after test substance; 10 microgram/kg acetylcholine; expiration resistance; read-out: -log ED50, Bronchi (converted)
Description: (§6) The objective of the methods was to confirm the selectivity of the antimuscarinic effect. Those substances which had been selected on the basis of "in vitro" tests were tested for their 3. […] M1 /M2 SELECTIVITY IN THE RAT 3. INHIBITION OF THE EFFECT OF ACETYLCHOLINE ON THE BLADDER, BRONCHI AND HEART RATE IN GUINEA PIGS 5 minutes after the administration of the test substance, 10 microgram/kg of acetylcholine were simultaneously injected intravenously and intra-arterially into anaesthetised guinea pigs. The heart rate was recorded directly by extracorporeal derivation of the ECG, the expiration resistance according to Konzett-Ro ler and contraction of the exposed bladder. In order to determine the inhibition of the acetylcholine activity on the organs under investigation, dosage/activity curves were recorded and from them -log ED50 values were determined.

[2] = molecular target: T3, muscarinic receptors (heart) (Rattus norvegicus, UniProt P10980); assay: biochemical; design: species or system male Sprague-Dawley rats; conditions: whole heart homogenate; 0.3 nanomolar 3H-NMS; 30 C; 45 minutes; pH 7.4; read-out: Receptor Binding Tests IC50, Heart
T3 sequence (P10980 1-466): T2 sequence (P10980 1-466)

[3] = molecular target: muscarinic receptors (submandibular gland) (Rattus norvegicus, UniProt P08483); assay: biochemical; design: species or system male Sprague-Dawley rats; conditions: submandibular gland homogenate; 0.3 nanomolar 3H-NMS; 30 C; 45 minutes; pH 7.4; read-out: Receptor Binding Tests IC50, Submandibular gland
Description: (§7) A. Studies of binding to muscarinic receptors:
(§8) In vitro measurement of the IC50 value
(§9) The organs were donated by male Sprague-Dawley rats weighing 180-220 g. After the heart and submandibular gland and cerebral cortex had been removed, all other steps were carried out in ice cold Hepes HCl buffer (pH 7.4; 100 millimolar NaCl, 10 millimolar MgClz). The whole heart was cut up with scissors. All the organs were then homogenised in a Potter apparatus.
(§10) For the binding test the homogenised organs were diluted as follows:
Submandibular gland 1:400
(§11) The homogenised organs were incubated at a certain concentration of the radioligand and at a series of concentrations of the non-radioactive test substances in an Eppendorf centrifuge tube at 30 C. Incubation lasted 45 minutes. The radioligand used was 0.3 nanomolar 3H-N-methylscopolamine (^3 H-NMS). Incubation was ended by the addition of ice cold buffer followed by vacuum filtration. The filters were rinsed with cold buffer and their radioactivity was determined. It represents the sum of specific and non-specific binding of ^3 H-NMS. The proportion of non-specific binding was defined as the radioactivity which was bound in the presence of 1 micromolar quinuclidinylbenzylate. Each measurement was taken four times. The IC50 values of the non-labelled test substances were determined graphically. They represent that concentration of test substance at which the specific binding of 3H-NMS to the muscarinic receptors in the various organs was inhibited by 50%.

[4] = system: acetylcholine activity on heart rate; assay: Inhibition of the effect of acetylcholine on heart rate in guinea pigs; format: in vivo, guinea pig; conditions: Cavia porcellus, 5 min
Description: as §6

[5] = system: acetylcholine activity on the bladder; assay: Inhibition of the effect of acetylcholine on the bladder in guinea pigs; format: in vivo, guinea pig; conditions: Cavia porcellus, 5 min
Description: as §6

[6] = molecular target: muscarinic receptors (cerebral cortex); assay: Muscarinic receptor binding, cerebral cortex (displacement of 3H-N-methylscopolamine); design: species or system male Sprague-Dawley rats; conditions: cerebral cortex homogenate; 0.3 nanomolar 3H-NMS; 30 C; 45 minutes; pH 7.4; read-out: Receptor Binding Tests IC50, Cortex
Description: as §7, §8, §9, §10
as §11, with “They represent that concentration of test substance at which the specific binding of 3H-NMS to the muscarinic receptors in the various organs was inhibited by 50%.” left out

[7] = i.v., 5 minutes after injection, 0.3 mg/kg McN-A-343 i.v., read-out: -log ED50, Blood pressure (McN-A-343 pressor response, M1) (converted)
[8] = i.v., 5 minutes after injection, vagus stimulation 25 Hz, read-out: -log ED50, Heart (vagal bradycardia, M2) (converted)
[9] = anaesthetised guinea pig, 5 minutes after test substance, 10 microgram/kg acetylcholine, read-out: -log ED50, Heart (converted)
[10] = anaesthetised guinea pig, 5 minutes after test substance, 10 microgram/kg acetylcholine, contraction of exposed bladder, read-out: -log ED50, Bladder (converted)

Chain of muscarinic receptors (submandibular gland) (P08483 whole entry): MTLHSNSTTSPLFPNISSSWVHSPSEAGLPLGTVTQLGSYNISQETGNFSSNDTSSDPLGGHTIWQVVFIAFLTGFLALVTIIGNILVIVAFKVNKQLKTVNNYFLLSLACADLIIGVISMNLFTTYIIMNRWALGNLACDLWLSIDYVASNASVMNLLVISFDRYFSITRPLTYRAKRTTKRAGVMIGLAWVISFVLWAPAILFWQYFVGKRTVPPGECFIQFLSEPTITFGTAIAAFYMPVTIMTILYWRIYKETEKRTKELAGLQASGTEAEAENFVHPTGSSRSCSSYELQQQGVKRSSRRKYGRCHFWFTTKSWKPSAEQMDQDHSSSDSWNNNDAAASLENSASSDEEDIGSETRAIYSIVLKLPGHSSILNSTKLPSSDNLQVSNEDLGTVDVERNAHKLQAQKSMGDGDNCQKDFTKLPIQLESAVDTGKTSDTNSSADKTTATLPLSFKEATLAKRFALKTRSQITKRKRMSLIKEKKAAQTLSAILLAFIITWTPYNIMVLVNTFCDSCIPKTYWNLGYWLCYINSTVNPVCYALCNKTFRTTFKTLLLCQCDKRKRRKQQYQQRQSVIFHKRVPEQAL

| SMILES | ED50 (M2; [8]) [µmol/kg] | IC50 [2] [nM] | IC50 [3] [nM] | IC50 [6] [nM] | ED50 (secretion of saliva) [µmol/kg] | ED50 (M1; [7]) [µmol/kg] | ED50 [1] [µmol/kg] | ED50 [4, 9] [µmol/kg] | ED50 [5, 10] [µmol/kg] | ED50 (M1; read-out: -log ED50, Blood pressure (McN-A-343 pressor response, M1)) [µmol/kg] | ED50 (M2; read-out: -log ED50, Heart (vagal bradycardia, M2)) [µmol/kg] | ED50 ([4]; read-out: -log ED50, Heart) [µmol/kg] | ED50 ([5]; read-out: -log ED50, Bladder) [µmol/kg] |
| --- | --- | --- | --- | --- | --- | --- | --- | --- | --- | --- | --- | --- | --- |
| CN(CCC1CCCN1C)CC(=O)N1c2ccccc2C(=O)Nc2cccnc21 (stereo not drawn) [Substance A, hydrochloride] | 0.0123 | 9 | 80 |  | 0.158 | 0.0871 | 0.0251 | 0.02 | 0.141 |  |  |  |  |
| CN1C2CCC1CC(OC(=O)C(CO)c1ccccc1)C2 (stereo not drawn) [Substance F, atropine, reference compound] |  |  |  |  |  |  |  |  |  | 0.0457 | 0.0115 | 0.02 | 0.0933 |
| CCN(CCC1CCCN1C)CC(=O)N1c2cc(Cl)ccc2C(=O)Nc2cccnc21 (stereo not drawn) [Substance B, 9-chloro-5,11-dihydro-11[[[2-(1-methyl-2-pyrrolidinyl)ethyl]ethylamino]acetyl]-6H-pyrido-[2,3-b][1,4]benzodiazepin-6-one] |  | 10 | 100 | 70 |  |  | 0.191 | 0.1 | 0.832 |  |  |  |  |

More lines, main results first:

| ED50 (M2; [8]) [µmol/kg] | IC50 [2] [nM] | IC50 [3] [nM] | IC50 [6] [nM] | SMILES | ED50 (secretion of saliva) [µmol/kg] | ED50 (M1; [7]) [µmol/kg] | ED50 [1] [µmol/kg] | ED50 [4, 9] [µmol/kg] | ED50 [5, 10] [µmol/kg] | ED50 (M1; read-out: -log ED50, Blood pressure (McN-A-343 pressor response, M1)) [µmol/kg] | ED50 (M2; read-out: -log ED50, Heart (vagal bradycardia, M2)) [µmol/kg] | ED50 ([4]; read-out: -log ED50, Heart) [µmol/kg] | ED50 ([5]; read-out: -log ED50, Bladder) [µmol/kg] |
| --- | --- | --- | --- | --- | --- | --- | --- | --- | --- | --- | --- | --- | --- |
| 0.38 |  |  |  | CCN(CC)CC1CCCCN1CC(=O)N1c2ccccc2C(=O)Nc2cccnc21 (stereo not drawn) [Substance D, 11-[[2-[(diethylamino)methyl]-1-piperidinyl]acetyl]-5,11-dihydro-6H-pyrido[2,3-b][1,4]benzodiazepin-6-one] | 10 | 2.34 |  |  |  |  |  |  |  |
|  | 3 | 20 | 8 | CN(CCC1CCCN1C)CC(=O)N1c2ccccc2NC(=O)c2ccccc21 (stereo not drawn) [Substance C, 5,10-dihydro-5-[[[2-(1-methyl-2-pyrrolidinyl)-ethyl]methylamino]acetyl]-11H-dibenzo[b,e][1,4]-diazepin-11-one hydrochloride] |  |  | 0.0295 | 0.0288 | 0.234 |  |  |  |  |
